The values below come from patent publication US8318976B2, “Salts, aqueous liquid compositions containing salts of S-(+)-abscisic acid and methods of their preparation” (Valent BioSciences Corporation, priority 2007, dated 2012).

For data set [1], the system named is tomato leaf transpiration. In words: Tomato leaf transpiration rate after foliar spray (LI-1600 porometer). Format: in vivo, Tomato (variety: Rutgers). The settings on record: for Transpiration rate (% of control), 3-Day Average: average of days 1-3; for Transpiration rate (% of control), Days after treatment 1: day 1; for Transpiration rate (% of control), Days after treatment 2: day 2; for Transpiration rate (% of control), Days after treatment 3: day 3. Here is the method:
Preparation of plant specimens for use in the treatment studies of the EXAMPLES that follow was carried out as follows. Tomato (variety: Rutgers) seeds were sown in an 18-cell flat filled with Promix PGX (available from Premier Horticulture Inc., Quakertown Pa.) and grown for 3 weeks to allow for germination and initial growth. Plants were then transplanted into pots (18 cm in diameter and 18 cm in height), filled with Promix BX (available from Premier Horticulture Inc., Quakertown Pa.), and grown for one or two more weeks before treatment, depending on temperature and available light. Plants received daily irrigation and weekly fertilizer (1 g/L all purpose fertilizer 20-20-20, available from The Scotts Company, Marysville, Ohio).
All treatment solutions were made up with distilled water. The (S)-(+)-abscisic acid (95% active ingredient) is available from Lomon BioTechnology Co., Ltd. (Shichuan, China). Twenty L of a 250 ppm solution of (S)-(+)-abscisic acid was prepared and stored in the dark at 20-25° C. This same 250-ppm (S)-(+)-abscisic acid solution was used as a control for all studies to eliminate the possibility of applying an incorrect concentration.
All experiments were conducted using a randomized complete block experimental design. Solutions of (S)-(+)-abscisic acid and blank treatments (plain water) were applied by spray to the aerial parts of the tomato plants at the rate of 20 mL per 6 plants. Plants were then placed in a transparent chamber with humidity controlled within the range of 40 to 60% relative humidity. Leaf transpiration rates were measured at 1, 2 and 3 days after treatment. Measurements were conducted using a LI-1600 Steady State Porometer (LI-Cor, Lincoln, Nebr.). Each day the transpiration rate of the plants of each treatment group was normalized to a percentage of the transpiration rate of untreated plants (plants sprayed with water only) in order to control for day-to-day variability in plant status caused by changes of environmental conditions such as light intensity and temperature. Data of each plant was also averaged over a 3-day period to balance the short term and long term effect of (S)-(+)-abscisic acid on tomato leaf transpiration as well as to reduce experimental variability.

The test system of data set [2] is California Blackeye Pea (cowpea). In words: Phytotoxicity and growth after foliar application. Particulars: for % Leaf Area Damaged 3 days after treatment: monofoliate leaves. Format: in vivo. Here is the method: Phytotoxicity is defined as damage to a plant caused by treatment with an externally applied chemical substance. Phytotoxicity caused by application of an agricultural chemical is considered highly undesirable (except in the case of herbicides). To test the relative safety of the compositions of the present invention, comprising an ammonium salt of (S)-(+)-abscisic acid, as compared to compositions of the prior art, comprising an ammonium salt of (R,S)-(±)-abscisic acid, plants were treated with solutions containing two different concentrations of the (S)-(+)-abscisic acid or with solutions containing (R,S)-(±)-abscisic acid at concentrations in which either the total concentration of (R,S)-(±)-abscisic acid was equal to the higher concentration of (S)-(+)-abscisic acid or in which the concentration of (S)-(+)-abscisic acid contained in the (R,S)-(±)-abscisic acid was equal to the higher treatment concentration of the pure (S)-(+)-abscisic acid. California Blackeye Pea (cowpea) seed was planted into 18 cell flats filled with Promix PGX in a greenhouse. When the plants had grown to a point where the monofoliate leaves were fully expanded and the first trifoliate leaves were emerging (18 days after planting) the plants were sprayed with 1.5 ml of treatment solution. After treatment the plants were held in the greenhouse and evaluated for damage to the monofoliate leaves and also for growth of the trifoliate leaves. The percentage of the monofoliate leaf area that was damaged was estimated three days after treatment, and monofoliate leaf abscission and trifoliate leaf development were determined on the fifth day after treatment.

The conditions of data set [3]: literature reports; cited from earlier work.
The conditions of data set [4]: cited from earlier work; for highest concentration achievable in water: pure water, room / ordinary ambient temperature.

Each structure is given as a SMILES string. Like-named read-outs stand apart in the source and are kept apart here.

As for `CC1=CC(=O)CC(C)(C)C1(O)/C=C/C(C)=C\C(=O)O.N` (racemic) [(R,S)-(±)-abscisic acid ammonium salt], in data set [1] (Table 8, 250 ppm spray), the “Transpiration rate (% of control), 3-Day Average” value is 90.95 % of control; the “Transpiration rate (% of control), Days after treatment 1” value is reported as 90.26 % of control; the “Transpiration rate (% of control), Days after treatment 2” value was 87.73 % of control; the “Transpiration rate (% of control), Days after treatment 3” value was 94.86 % of control. In addition, in data set [1] (Table 8, 500 ppm spray), the “Transpiration rate (% of control), 3-Day Average” value is reported as 81.03 % of control; the “Transpiration rate (% of control), Days after treatment 1” value was 77.53 % of control; the “Transpiration rate (% of control), Days after treatment 2” value is 76.20 % of control; the “Transpiration rate (% of control), Days after treatment 3” value is 89.36 % of control. For the same compound, in data set [2] (6250 ppm foliar spray), the “Average Number of Abscised Monofoliate Leaves 5 days after treatment” value is recorded as 1.7, the “Average Number of New Trifoliate Leaves 5 days after treatment” value amounted to 0.0 and the “% Leaf Area Damaged 3 days after treatment” value was determined as 97%. In data set [2] (12500 ppm foliar spray), the “Average Number of Abscised Monofoliate Leaves 5 days after treatment” value is 2.0, the “Average Number of New Trifoliate Leaves 5 days after treatment” value was 0.0 and the “% Leaf Area Damaged 3 days after treatment” value was 100%. In addition, the “relative phytotoxicity, (S)-(+)- vs (R,S)-(±)-abscisic acid salt” value in data set [2] (equal total dose or equal (S)-(+)-enantiomer dose) is “more phytotoxicity”.
On to `CC1=CC(=O)CC(C)(C)[C@]1(O)/C=C/C(C)=C\C(=O)O` [(R)-(−)-abscisic acid], for which, in data set [3], the biological activity result is “biologically inactive”.
Consider `CC(C=C[C@@]1(O)C(C)=CC(=O)CC1(C)C)=CC(=O)O` [(S)-(+)-2-trans-,4-trans-isomer], for which the biological activity result in data set [3] was “biologically inactive”.
Regarding `CC1=CC(=O)CC(C)(C)[C@@]1(O)/C=C/C(C)=C\C(=O)O` [(S)-(+)-abscisic acid, 2-cis-, 4-trans-(S)-(+)-abscisic acid], the “Transpiration rate (% of control), 3-Day Average” value was 87.02 % of control in data set [1] (Table 1, 250 ppm spray); 87.02 % of control in data set [1] (Table 2, 250 ppm spray); 80.78 % of control in data set [1] (Table 3, 250 ppm spray); 83.21 % of control in data set [1] (Table 4, 250 ppm spray); 69.00 % of control in data set [1] (Table 5, 250 ppm spray); 78.21 % of control in data set [1] (Table 7, 250 ppm spray). Moreover, the “Transpiration rate (% of control), 3-Day Average” value in data set [1] (Table 8, 250 ppm spray) is 78.21 % of control. Besides, the “Transpiration rate (% of control), Days after treatment 1” value in data set [1] (Table 1, 250 ppm spray) is reported as 75.59 % of control; in data set [1] (Table 2, 250 ppm spray), 75.59 % of control; in data set [1] (Table 3, 250 ppm spray), 72.66 % of control; in data set [1] (Table 4, 250 ppm spray) it was 75.30 % of control; in data set [1] (Table 5, 250 ppm spray) it was 59.35 % of control; in data set [1] (Table 7, 250 ppm spray) it was 71.16 % of control. Moreover, the “Transpiration rate (% of control), Days after treatment 1” value in data set [1] (Table 8, 250 ppm spray) is 71.16 % of control. Further, the “Transpiration rate (% of control), Days after treatment 2” value is 89.83 % of control in data set [1] (Table 1, 250 ppm spray); 89.83 % of control in data set [1] (Table 2, 250 ppm spray); 76.18 % of control in data set [1] (Table 3, 250 ppm spray); 83.65 % of control in data set [1] (Table 4, 250 ppm spray); 71.02 % of control in data set [1] (Table 5, 250 ppm spray); 75.23 % of control in data set [1] (Table 7, 250 ppm spray). Moreover, the “Transpiration rate (% of control), Days after treatment 2” value in data set [1] (Table 8, 250 ppm spray) is recorded as 75.23 % of control. The “Transpiration rate (% of control), Days after treatment 3” value in data set [1] (Table 1, 250 ppm spray) is given as 95.63 % of control; in data set [1] (Table 2, 250 ppm spray), 95.63 % of control; in data set [1] (Table 3, 250 ppm spray) it was 93.50 % of control; in data set [1] (Table 4, 250 ppm spray), 90.68 % of control; in data set [1] (Table 5, 250 ppm spray), 76.62 % of control; in data set [1] (Table 7, 250 ppm spray), 88.25 % of control. The “Transpiration rate (% of control), Days after treatment 3” value in data set [1] (Table 8, 250 ppm spray) is listed as 88.25 % of control. Besides, the “solubility in hard water” value in data set [4] (hard water, compared with pure water) is “even less”. Besides, the “solubility in propylene glycol” value in data set [4] (propylene glycol) is on record as “poorly soluble”. Further, the “highest concentration achievable in water” value is recorded as no more than 3000 ppm in data set [4] and “about 3000 ppm” in data set [4] (listed as abscisic acid).
